Patent US8394848B2, “Compounds that modulate intracellular calcium” (Calcimedica, Inc., priority 2008, dated 2013)

Each molecule was assayed on JR251 or RBL cells (assay: Store-operated calcium entry, either JR251 or RBL cells, or both).
Assay type: cell-based
Procedure, shortened: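 Orai1/STIM1 stable cells: fluo-4-AM loaded, compound 30 min at RT in Ca2+-free HBSS, then CaCl2 added; IC50 from Peak-Basal FLIPR fluorescence. RBL-2H3 cells: compound 5 min, then thapsigargin (5.5× stock, 5.5 uM) 25 min, then calcium added; IC50 from Upslope (signal 7 s after calcium minus baseline).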

IC50, < 10 µM:
Cc1cccc2nc(C(=O)Nc3scc(-c4ccc(Cl)cc4)c3C(=O)O)cnc12 [4-(4-chlorophenyl)-2-(5-methylquinoxaline-2-carboxamido)thiophene-3-carboxylic acid], COc1cccc(C(=O)Nc2scc(-c3ccc(Cl)cc3)c2C(=O)O)n1 [4-(4-chlorophenyl)-2-(6-methoxypicolinamido)thiophene-3-carboxylic acid], CC(Cc1ccccc1)C(=O)Nc1scc(-c2ccc(Br)cc2)c1C(=O)O (stereo not shown) [4-(4-bromophenyl)-2-(2-methyl-3-phenylpropanamido)thiophene-3-carboxylic acid], Cc1ccc(-c2csc(NC(=O)c3cc4ccccn4n3)c2C(=O)O)c(F)c1F [4-(2,3-difluoro-4-methylphenyl)-2-(pyrazolo[1,5-a]pyridine-2-carboxamido)thiophene-3-carboxylic acid], O=C(CCc1ccccc1)Nc1scc(-c2ccc(Cl)cc2)c1C(=O)O [4-(4-chlorophenyl)-2-(3-phenylpropanamido)thiophene-3-carboxylic acid], O=C(O)c1c(-c2ccc(Cl)cc2)csc1NC(=O)c1csc2nnsc12 [4-(4-chlorophenyl)-2-(thieno[2,3-d][1,2,3]thiadiazole-6-carboxamido)thiophene-3-carboxylic acid], O=C(Nc1scc(-c2ccc(Cl)c(C(F)(F)F)c2)c1C(=O)O)c1nc2ccccc2o1 [2-(benzo[d]oxazole-2-carboxamido)-4-(4-chloro-3-(trifluoromethyl)phenyl)thiophene-3-carboxylic acid], O=C(Nc1scc(-c2cc3cccc(OCc4ccccc4)c3o2)c1C(=O)O)c1cc2ccccc2o1 [2-(benzofuran-2-carboxamido)-4-(7-(benzyloxy)benzofuran-2-yl)thiophene-3-carboxylic acid], O=C(CCc1ccccc1F)Nc1scc(-c2ccc(Br)cc2)c1C(=O)O [4-(4-bromophenyl)-2-(3-(2-fluorophenyl)propanamido)thiophene-3-carboxylic acid], O=C(Nc1scc(-c2ccc(Cl)cc2)c1C(=O)O)c1ccc(Cl)nn1 [4-(4-chlorophenyl)-2-(6-chloropyridazine-3-carboxamido)thiophene-3-carboxylic acid], Cc1ccc(-c2csc(NC(=O)c3nc4cc(F)ccc4o3)c2C(=O)O)c(F)c1F [4-(2,3-difluoro-4-methylphenyl)-2-(5-fluorobenzo[d]oxazole-2-carboxamido)thiophene-3-carboxylic acid], O=C(Nc1scc(-c2ccc(Cl)cc2)c1C(=O)O)c1cnn(-c2ccccc2)c1C(F)(F)F [4-(4-chlorophenyl)-2-(1-phenyl-5-(trifluoromethyl)-1H-pyrazole-4-carboxamido)thiophene-3-carboxylic acid], O=C(O)c1c(-c2ccc(Cl)cc2)csc1NC(=O)C1Cc2ccccc21 (stereo not shown) [4-(4-chlorophenyl)-2-(1,2-dihydrocyclobutabenzene-1-carboxamido)thiophene-3-carboxylic acid], Cc1cccc(C)c1CCC(=O)Nc1scc(-c2ccc(Cl)cc2)c1C(=O)O [4-(4-chlorophenyl)-2-(3-(2,6-dimethylphenyl)propanamido)thiophene-3-carboxylic acid], Cc1ccc(-c2csc(NC(=O)c3scc(S(=O)(=O)c4ccc(Cl)cc4)c3C)c2C(=O)O)cc1 [2-(4-(4-chlorophenylsulfonyl)-3-methylthiophene-2-carboxamido)-4-p-tolylthiophene-3-carboxylic acid], COc1cccc(CCC(=O)Nc2scc(-c3ccc(Br)cc3)c2C(=O)O)c1 [4-(4-bromophenyl)-2-(3-(3-methoxyphenyl)propanamido)thiophene-3-carboxylic acid], O=C(Nc1scc(-c2ccc(F)c(O)c2F)c1C(=O)O)c1cc2ccccc2o1 [2-(benzofuran-2-carboxamido)-4-(2,4-difluoro-3-hydroxyphenyl)thiophene-3-carboxylic acid], O=C(CCc1ccc(F)cc1)Nc1scc(-c2ccc(Cl)cc2)c1C(=O)O [4-(4-chlorophenyl)-2-(3-(4-fluorophenyl)propanamido)thiophene-3-carboxylic acid], Cc1nn(C)c2sc(C(=O)Nc3scc(-c4ccc(Cl)cc4)c3C(=O)O)cc12 [4-(4-chlorophenyl)-2-(1,3-dimethyl-1H-thieno[2,3-c]pyrazole-5-carboxamido)thiophene-3-carboxylic acid], O=C(Nc1scc(-c2ccc(Cl)cc2)c1C(=O)O)c1ccc2ccccc2n1 [4-(4-chlorophenyl)-2-(quinoline-2-carboxamido)thiophene-3-carboxylic acid], O=C(O)c1c(-c2ccc(Cl)cc2)csc1NC(=O)N1Cc2ccccc2C1 [4-(4-chlorophenyl)-2-(isoindoline-2-carboxamido)thiophene-3-carboxylic acid], O=C(Nc1scc(-c2ccc(Cl)cc2)c1C(=O)O)c1cc2ncccn2n1 [4-(4-chlorophenyl)-2-(pyrazolo[1,5-a]pyrimidine-2-carboxamido)thiophene-3-carboxylic acid], Cc1ccc(-c2csc(NC(=O)c3cc4sccc4s3)c2C(=O)O)c(F)c1F [4-(2,3-difluoro-4-methylphenyl)-2-(thieno[3,2-b]thiophene-2-carboxamido)thiophene-3-carboxylic acid], Cc1ccc(-c2csc(NC(=O)c3scc(S(C)(=O)=O)c3Cl)c2C(=O)O)cc1 [2-(3-chloro-4-(methylsulfonyl)thiophene-2-carboxamido)-4-p-tolylthiophene-3-carboxylic acid], COc1cccc2cc(-c3csc(NC(=O)c4nc5ccccc5o4)c3C(=O)O)oc12 [2-(benzo[d]oxazole-2-carboxamido)-4-(7-methoxybenzofuran-2-yl)thiophene-3-carboxylic acid], Cc1ccc(-c2csc(NC(=O)c3cn4ccsc4n3)c2C(=O)O)c(F)c1F [4-(2,3-difluoro-4-methylphenyl)-2-(imidazo[2,1-b]thiazole-6-carboxamido)thiophene-3-carboxylic acid], Cn1cnc(C(=O)Nc2scc(-c3ccc(Br)cc3)c2C(=O)O)c1 [4-(4-bromophenyl)-2-(1-methyl-1H-imidazole-4-carboxamido)thiophene-3-carboxylic acid], O=C(Nc1scc(-c2ccc(Cl)cc2)c1C(=O)O)c1cnc(C(F)(F)F)nc1 [4-(4-chlorophenyl)-2-(2-(trifluoromethyl)pyrimidine-5-carboxamido)thiophene-3-carboxylic acid], Cc1ccc(-c2csc(NC(=O)c3ccc4ccccc4n3)c2C(=O)O)cc1 [2-(quinoline-2-carboxamido)-4-p-tolylthiophene-3-carboxylic acid], O=C(CCc1c(Cl)cccc1Cl)Nc1scc(-c2ccc(Cl)cc2)c1C(=O)O [4-(4-chlorophenyl)-2-(3-(2,6-dichlorophenyl)propanamido)thiophene-3-carboxylic acid], O=C(Nc1scc(-c2ccc(Cl)cc2)c1C(=O)O)OCc1ccccc1Cl [2-((2-chlorobenzyloxy)carbonylamino)-4-(4-chlorophenyl)thiophene-3-carboxylic acid], O=C(O)c1c(-c2ccc(Br)cc2)csc1NC(=O)C1Cc2ccccc2O1 (stereo not shown) [4-(4-bromophenyl)-2-(2,3-dihydrobenzofuran-2-carboxamido)thiophene-3-carboxylic acid], O=C(Nc1scc(-c2ccc(Cl)c(F)c2)c1C(=O)O)c1nc2ccccc2s1 [2-(benzo[d]thiazole-2-carboxamido)-4-(4-chloro-3-fluorophenyl)thiophene-3-carboxylic acid], O=C(COc1ccccc1)Nc1scc(-c2ccc(Cl)cc2)c1C(=O)O [4-(4-chlorophenyl)-2-(2-phenoxyacetamido)thiophene-3-carboxylic acid], N#Cc1ccc(-c2csc(NC(=O)CCc3ccccc3)c2C(=O)O)cc1 [4-(4-cyanophenyl)-2-(3-phenylpropanamido)thiophene-3-carboxylic acid], O=C(CSc1ccccc1)Nc1scc(-c2ccc(C(F)(F)F)cc2)c1C(=O)O [2-(2-(phenylthio)acetamido)-4-(4-(trifluoromethyl)phenyl)thiophene-3-carboxylic acid], O=C(CCc1ccc(F)cc1)Nc1scc(-c2ccc(Br)cc2)c1C(=O)O [4-(4-bromophenyl)-2-(3-(4-fluorophenyl)propanamido)thiophene-3-carboxylic acid], O=C(O)c1c(-c2ccc(Br)cc2)csc1Nc1nc(-c2ccccc2)no1 [4-(4-bromophenyl)-2-(3-phenyl-1,2,4-oxadiazol-5-ylamino)thiophene-3-carboxylic acid], O=C(CCc1ccccc1F)Nc1scc(-c2ccc(Cl)cc2)c1C(=O)O [4-(4-chlorophenyl)-2-(3-(2-fluorophenyl)propanamido)thiophene-3-carboxylic acid], Cc1oc(-c2ccccc2)cc1C(=O)Nc1scc(-c2ccc(Cl)cc2)c1C(=O)O [4-(4-chlorophenyl)-2-(2-methyl-5-phenylfuran-3-carboxamido)thiophene-3-carboxylic acid], Cc1ccc(-c2csc(NC(=O)c3cnc4ccccc4n3)c2C(=O)O)c(F)c1F [4-(2,3-difluoro-4-methylphenyl)-2-(quinoxaline-2-carboxamido)thiophene-3-carboxylic acid], O=C(Nc1scc(-c2ccc(Br)cc2)c1C(=O)O)c1ccc2ccccc2n1 [4-(4-bromophenyl)-2-(quinoline-2-carboxamido)thiophene-3-carboxylic acid], COc1cc(C(F)(F)F)ccc1-c1csc(NC(=O)c2nc3ccccc3o2)c1C(=O)O [2-(benzo[d]oxazole-2-carboxamido)-4-(2-methoxy-4-(trifluoromethyl)phenyl)thiophene-3-carboxylic acid]
